{
  "source": "paper PMC3989846",
  "about": "(Malaria Journal, 2014)",
  "key": {"[1]": {"parameters": "method as in PMID 15378438, PMID 10479159", "conditions": "cited from earlier work"}, "[2]": {"assay": "Liver tissue distribution pharmacokinetics after single intravenous or intragastric dose", "format": "in vivo, male ICR mice", "conditions": "for Kp: liver/plasma, read-out: AUCinf ratio (liver/plasma); for half-life: read-out: t1/2 elimination (converted)", "protocol": "PK studies were performed using both intravenous (IV) and intragastric (IG) administration. For each time point to be acquired, three male ICR mice per time-point, aged seven weeks, were dosed at either PQ or TQ at 5 mg/kg (IV) or 20 mg/kg (IG). Drug vehicle for IV studies was 0.9% saline solution, and the formulated drugs were administered in a volume of 100 μL/20 g of body weight. For IG dosing, the drug vehicle was 0.5% HECT, administered at 100 μL/20 g. At each time point, plasma and liver samples were collected. Whole blood was collected by cardiac puncture. […] Following the separation of appropriate aliquots, plasma was obtained from the whole blood via centrifugation. All liquid and tissue samples were immediately preserved on dry ice and lately stored at -80°C until analytical work was performed.\nBlank liver homogenate was prepared by adding 5 mL of water for each gram of liver, then the mixture was homogenized using an ultra-sonication probe (VCX 750, Sonics & Materials, Inc., Newtown, CT). […] The serial dilutions for analysis also included the preparation of 4–5 QC samples at a low range point and a high range point (generally 10 ng/mL and 100 ng/mL, respectively). Once the standard curve dilutions were prepared, a 100 μL aliquot was removed and extracted with 200 μL acetonitrile. The extracted samples were centrifuged at 10,000 rpm for 10 min and the supernatant was removed for analysis by LC-MS/MS. Sample drug concentrations were first interpolated from the standard curve, then multiplied by a factor of 6 to account for the drug levels present in the liver prior to dilution with water for homogenization.\nChromatography was performed using a Surveyor pump (Thermo Scientific, Waltham, MA) with Waters XTerra MS C18 50 mm × 2.1 mm id, 3.5 μm particle size columns (Waters Corp., Milford, MA). Mobile phase consisted of a water/0.1% formic acid (Solvent A)/acetonitrile/0.1% formic acid (Solvent B) gradient. […] Flow rate was 300 μL/min. Samples were injected using an HTC PAL autosampler (LEAP Technologies, Carrboro, NC). Tandem mass spectrometry was performed using a TSQ Quantum AM (Thermo Scientific).\nDrug concentrations were generated for each sample taken from animals dosed with both test drugs. A measured plasma and liver drug concentration vs. time curve was produced, in graphic and tabular form, for each subject on both linear/linear and log/linear scales, for the parent compound. Mean plasma drug concentration vs. time curves were also prepared separately. For the determination of initial approach to PK parameters of TQ and PQ in plasma and liver tissues after systemic application, a non-compartmental analysis was performed using Phoenix (version 6.1; Pharsight Corp., Mountain View, CA). Maximum plasma and liver concentration (Cmax), and time to maximum concentration (tmax) of TQ and PQ were obtained from the plasma and liver drug concentration-time curves. The elimination half-life (t1/2) was calculated from In2/kel, which is the elimination rate constant calculated from the log concentration-time plot. The area under the curve (AUC) and the area under the first moment curve (AUMC) were determined by the linear trapezoidal rule with extrapolation to infinity based on the concentration of the last time point divided by the terminal rate constant. Mean clearance rate (CL) was determined by dividing the dose by the AUCinf for intravenous injection for plasma samples. Absolute bioavailability was calculated by taking the dose-corrected area under the curve (AUC) from non-intravenous dosing divided by the AUC derived from intravenous dosing. Mean residence time (MRT) was determined by dividing the area under the first moment curve (AUMC) by AUC. The volume of the central compartment (Vz) and volume of the tissue compartment (Vz/F) were calculated as the product of CL and MRT."}, "[3]": {"conditions": "male, ICR, mouse, po, intragastric 20 mg/kg, liver"}, "[4]": {"conditions": "male, ICR, mouse, intravenous 5 mg/kg, liver"}},
  "note": "Like-named read-outs stand apart in the source and are kept apart here.",
  "data": [
    {"smiles": "COc1cc(C)c2c(Oc3cccc(C(F)(F)F)c3)c(OC)cc(NC(C)CCCN)c2n1", "note": "(centres unmarked) [Tafenoquine, tafenoquine]", "values": [
      {"measurement": "half-life", "setting": "[1]", "result": "approximately 14 days"},
      {"measurement": "Cmax", "setting": "[2]; ICR, mouse, intravenous 5 mg/kg, liver, male mice (head: μg/mL or g), read-out: Cmax", "result": "44800 ± 30000", "unit": "ng/g"},
      {"measurement": "AUCinf ratio (liver/plasma)", "setting": "[2]; intragastric 20 mg/kg", "result": "48.91 ± 22.67"},
      {"measurement": "Cmax", "setting": "[2]; intragastric 20 mg/kg, liver", "result": "56.90 ± 26.09", "unit": "µg/mL"},
      {"measurement": "AUCinf ratio (liver/plasma)", "setting": "[2]; intravenous 5 mg/kg, 5 mg/kg", "result": "87.24 ± 44.29"},
      {"measurement": "AUClast", "setting": "[2]; intravenous 5 mg/kg, liver (μg · h/mL or g)", "result": "2493.82 ± 1361.10", "unit": "µg·h/g"},
      {"measurement": "AUCinfininty", "setting": "[2]; intravenous 5 mg/kg, liver (μg · h/mL or g), 5 mg/kg", "result": "2544.96 ± 1348.03", "unit": "µg·h/g"},
      {"measurement": "AUCinfininty", "setting": "[2]; intravenous 5 mg/kg, liver (μg · h/mL or g), listed as TQ, 5 mg/kg", "result": 2544.96, "unit": "µg·h/g"},
      {"measurement": "Kp", "setting": "[2]; male, ICR, mouse, po, intragastric 20 mg/kg", "result": 48.9},
      {"measurement": "Kp", "setting": "[2]; male, ICR, mouse, intravenous 5 mg/kg", "result": 87.2},
      {"measurement": "MRT", "setting": "[2]; [3]", "result": "88.7 ± 13", "unit": "h"},
      {"measurement": "Tmax", "setting": "[2]; [3]", "result": "1.17 ± 0.76", "unit": "h"},
      {"measurement": "half-life", "setting": "[2]; [3]", "result": "75.5 ± 12.1", "unit": "h"},
      {"measurement": "MRT", "setting": "[2]; [4]", "result": "66.1 ± 19.2", "unit": "h"},
      {"measurement": "Tmax", "setting": "[2]; [4]", "result": "3.69 ± 2.29", "unit": "h"},
      {"measurement": "half-life", "setting": "[2]; [4]", "result": "70 ± 4.35", "unit": "h"},
      {"measurement": "Cmax", "setting": "[2]; male, ICR, mouse, single oral dose 20 mg/kg, liver, read-out: Cmax", "result": 56900, "unit": "ng/g"},
      {"measurement": "Cmax of orally dosed TQ, fold higher than PQ in liver tissue", "setting": "[2]; oral, liver", "result": "~7", "unit": "fold"},
      {"measurement": "elimination half-life of oral TQ, fold longer than oral PQ in the liver", "setting": "[2]; oral, liver", "result": 17.6, "unit": "fold"},
      {"measurement": "AUCinf", "setting": "[2]; single oral dose 20 mg/kg, liver", "result": 5391.86, "unit": "µg·h/g"}
    ]}
  ]
}
